Key:
[1] = target: T1, RpfC (full-length, in liposomes) (Xanthomonas campestris, UniProt P0C0F7); assay: label-free microscale thermophoresis, RpfC liposomes; type: binding; details: 50 mM Tris-HCl pH 7.8, 150 mM NaCl, 10 mM MgCl2, 0.1% Pluronic F-127
[2] = target: T1, RpfC (full-length, in liposomes); assay: […] autophosphorylation assay, RpfC liposomes; type: biochemical; details: activation of autokinase; 100 µM ATP, pH 7.8, 5 mM MgCl2, 28 °C

T1 sequence (P0C0F7 whole entry): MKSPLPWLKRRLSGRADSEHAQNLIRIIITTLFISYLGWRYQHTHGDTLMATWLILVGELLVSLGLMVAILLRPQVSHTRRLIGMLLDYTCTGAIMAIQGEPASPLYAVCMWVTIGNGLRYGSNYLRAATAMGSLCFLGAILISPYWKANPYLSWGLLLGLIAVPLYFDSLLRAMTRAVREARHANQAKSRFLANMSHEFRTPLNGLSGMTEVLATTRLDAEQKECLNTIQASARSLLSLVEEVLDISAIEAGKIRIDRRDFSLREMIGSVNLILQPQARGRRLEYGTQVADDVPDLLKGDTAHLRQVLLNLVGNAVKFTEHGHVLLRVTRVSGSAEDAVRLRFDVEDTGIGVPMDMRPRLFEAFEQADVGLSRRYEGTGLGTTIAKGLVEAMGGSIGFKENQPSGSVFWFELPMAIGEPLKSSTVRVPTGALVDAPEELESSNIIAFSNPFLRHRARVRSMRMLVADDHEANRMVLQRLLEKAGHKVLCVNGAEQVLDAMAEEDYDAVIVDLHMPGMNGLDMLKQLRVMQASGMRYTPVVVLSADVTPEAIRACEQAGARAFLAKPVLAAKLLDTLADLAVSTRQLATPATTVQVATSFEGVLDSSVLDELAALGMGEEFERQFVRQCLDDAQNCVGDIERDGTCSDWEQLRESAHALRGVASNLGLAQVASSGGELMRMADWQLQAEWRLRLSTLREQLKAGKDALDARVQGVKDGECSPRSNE

| Kd [1] | EC50 [2] | Structure (SMILES) |
| --- | --- | --- |
| 11.2 ± 0.95 µM | 1.11 µM | CCCCCCCCC/C=C/C(=O)O [trans-BDSF] |
|  | ~0.06 µM | CCCCCCCCC/C=C\C(=O)O [BDSF, cis-2-dodecenoic acid] |

Reference: paper doi:10.1101/2022.01.03.474871v1 (biorxiv, 2022)
